Where two headings read alike, the source gives them in different places.
How the values were obtained:
[1] = system: climbing behaviour in mice, induced by apomorphine; assay: Apomorphine climbing test (ACT) in mice; assay type: in vivo; conditions: test compound s.c., 0.75 mg/kg apomorphine HCl s.c. after 30 min, climbing scored at 10 and 20 min
From the text: The ability of dopamine receptor antagonists to inhibit the behavioural effects in rodents caused by dopamine agonists such as apomorphine is a well established criterion for predicting the antipsychotic efficacy of these drugs in man (see e.g. W. C. Bowman and M. J. Rand, Textbook of Pharmacology, 2nd ed., 1980, 15, 6). A particularly relevant test in this respect is the apomorphine climbing test (ACT) which measures the ability of a dopamine antagonist to inhibit the climbing behaviour in mice, induced by the subcutaneous or oral administration of apomorphine. Activity in this test, following systemic and oral administration, has been widely used as a predictor of antipsychotic activity i.e. anti-schizophrenic activity (see e.g. J. T Strupczewski et.al., J. Med. Chem., 1995, 38, 1119). Mice treated with apomorphine HCl tend to adopt a vertical position along the wall of a wire mesh cylinder, standing or climbing. This climbing behaviour is considered to be elicited by apomorphine-mediated stimulation of dopamine receptors. […] Test compounds which modulate this climbing behaviour may have antipsychotic activity. The various treatments are randomly distributed over the mice. Each experiment consists of 1+n treatment groups: 1 being a control group of 12 mice receiving apomorphine and vehicle subcutaneously or being a control group of 12 mice receiving apomorphine subcutaneously and vehicle orally; n being (usually 4) compound groups of 12 mice receiving apomorphine and test compound subcutaneously or being compound groups of 12 mice receiving apomorphine subcutaneously and test compound orally.
Experiments are performed in 3 runs of 20 mice each. […]
At 10 min after the treatment with apomorphine the climbing behaviour of each mouse is observed and expressed as a score, according to the following grade: […]
At 20 min after the treatment with apomorphine the climbing behaviour is observed and scored again. For each treatment group the mean score per mouse is determined. […] The final result per group is expressed as the percentage over the control group. […]

catalepsy in rats [2] = conditions: rat, in vivo
Protocol: (§1) Male Wistar rats (100-125 g, Olac UK) were used for catalepsy experiments. Catalepsy was assessed as described previously (Broekkamp et al, Naunyn-Schmiedeberg's Arch. Pharmacol. 338, 191 1988). Briefly, rats were tested in 6 different observation trials in which the animals were placed in abnormal postures and scored positively with one point for maintaining the imposed posture for 10 s. The imposed postures were: vertical clinging to a grid, upright standing with a high support for the front paws, extension of hindlegs, placement on back, placement of spatula in the mouth and rotation in a wire mesh cylinder.
(§2) Theoretically a maximum score of 6 can be reached. Catalepsy was assessed at 60 and 120 minutes after drug administration. The data were evaluated by 2 way ANOVAR followed by a Newman Kools post hoc test and ED50 values calculated (Table II).

catalepsy in rats [3] = assay: Catalepsy in rats; conditions: male Wistar rats; catalepsy assessed at 60 and 120 minutes after drug administration
Protocol: as §1, §2

SMILES	melting point	ACT(ED50) [1]	further results
CCc1csc(C(=C2CCN(CCCC(=O)N3CCCC3)CC2)c2ccc(F)cc2)c1.Cl.Cl	167.4 °C	–	–
Cc1csc(C(=C2CCN(CCCNC(=O)c3ccccc3)CC2)c2ccc(F)cc2)c1.Cl	95 to 97 °C	–	–
Cc1ccc(C(=O)NCCN2CCC(=C(c3ccc(F)cc3)c3cc(C)cs3)CC2)cc1.O=C(O)C(=O)O	189 to 191 °C	–	–
Cc1ccc(C(=O)N(C)CCN2CCC(=C(c3ccc(F)cc3)c3cc(C)cs3)CC2)cc1	114 to 116 °C	–	–
Cc1csc(C(=C2CCN(CCNC(=O)C3CC3)CC2)c2ccc(F)cc2)c1.O=C(O)C(=O)O	98 to 101 °C	–	–
Cc1csc(C(=C2CCN(CCCC(=O)N3CCCCC3)CC2)c2ccc(F)cc2)c1.O=C(O)C(=O)O [Compound 2l, 1-[4-[4-[(4-fluorophenyl)(4-methylthien-2-yl)methylene]piperidin-1-yl]-1-oxobutyl]-piperidine (1:1) ethanedicarboxylate]	–	0.3 mg/kg	–
Cc1csc(C(=C2CCN(CCCC(=O)N3CCCC3)CC2)c2ccc(F)cc2)c1.Cl.Cl [Compound 2m, 1-[4-[4-[(4-fluorophenyl)(4-methylthien-2-yl)methylene]piperidin-1-yl]-1-oxobutyl]-pyrrolidine.dihydrochloride]	–	0.14 mg/kg	CATR (ED50) (catalepsy in rats [2]): >7 mg/kg
Cc1csc(C(=C2CCN(CCCC(=O)N3CCCCC3)CC2)c2cccc(F)c2)c1.Cl [Compound 2n, 1-[4-[4-[(3-fluorophenyl)(4-methylthien-2-yl)methylene]piperidin-1-yl]-1-oxobutyl]-piperidine.hydrochloride]	–	0.34 mg/kg	CATR (ED50) (catalepsy in rats [3]): >17 mg/kg

From patent US6365604B1, “Antipsychotic substituted piperidine derivatives” (Akzo Nobel NV, priority 1997, dated 2002)
